Laboratory results from PubChem BioAssay AID330 (DTP/NCI, 2004).
“And” between values parts separate entries of the source, which are not always exact repeats. Equal values may be shown once. Toxic doses and inconclusive results are not listed. The calls were made as follows: active = survival T/C of 150% or more; inactive = T/C below 125% in these data.

System: P388 leukemia ip, CD2F1 mice, survival T/C
Experiment: NCI In Vivo Anticancer Drug Screen. Data for tumor model P388 Leukemia (intraperitoneal) in CD2F1 (CDF1) mice
Details: endpoint: median survival time, higher = longer survival
Method in brief: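 Mice carrying the transplanted tumor received test compound or vehicle. Survival was recorded in each group, and the value is the treated-group measurement divided by that of the vehicle-treated control group.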

[1] = dose: 200.0 mg/kg/injection, schedule: Q01DX009 (ip), vehicle: water
[2] = dose: 25.0 mg/kg/injection, schedule: Q04DX003 (ip), vehicle: saline with Tween-80
[3] = dose: 50.0 mg/kg/injection, schedule: Q04DX003 (ip), vehicle: saline with Tween-80
[4] = dose: 100.0 mg/kg/injection, schedule: Q04DX003 (ip), vehicle: saline with Tween-80
[5] = dose: 200.0 mg/kg/injection, schedule: Q04DX003 (ip), vehicle: saline with Tween-80
[6] = dose: 50.0 mg/kg/injection, schedule: Q01DX009 (ip), vehicle: saline
[7] = dose: 100.0 mg/kg/injection, schedule: Q01DX009 (ip), vehicle: saline
[8] = dose: 200.0 mg/kg/injection, schedule: Q01DX009 (ip), vehicle: saline
[9] = dose: 50.0 mg/kg/injection, schedule: Q01DX005 (ip), vehicle: saline with Tween-80
[10] = dose: 100.0 mg/kg/injection, schedule: Q01DX005 (ip), vehicle: saline with Tween-80
[11] = dose: 200.0 mg/kg/injection, schedule: Q01DX005 (ip), vehicle: saline with Tween-80
[12] = dose: 12.5 mg/kg/injection, schedule: Q01DX009 (ip), vehicle: saline with Tween-80
[13] = dose: 25.0 mg/kg/injection, schedule: Q01DX009 (ip), vehicle: saline with Tween-80
[14] = dose: 100.0 mg/kg/injection, schedule: Q01DX009 (ip), vehicle: Klucel (hydroxypropylcellulose) (HPC)
[15] = dose: 200.0 mg/kg/injection, schedule: Q01DX009 (ip), vehicle: Klucel (hydroxypropylcellulose) (HPC)
[16] = dose: 50.0 mg/kg/injection, schedule: Q01DX009 (ip), vehicle: saline with Tween-80
[17] = dose: 400.0 mg/kg/injection, schedule: Q04DX003 (ip), vehicle: saline with Tween-80
[18] = dose: 60.0 mg/kg/injection, schedule: Q01DX005 (ip), vehicle: Klucel (hydroxypropylcellulose) (HPC)
[19] = dose: 120.0 mg/kg/injection, schedule: Q01DX005 (ip), vehicle: Klucel (hydroxypropylcellulose) (HPC)

Measured: T/C

O=NN(CC(=O)OCc1ccccc1)NC(=O)OCc1ccccc1
inactive: dose: 12.5 mg/kg/injection, schedule: Q01DX009 (ip), vehicle: other 96 % of control | dose: 25.0 mg/kg/injection, schedule: Q01DX009 (ip), vehicle: other 97 % of control | dose: 50.0 mg/kg/injection, schedule: Q01DX009 (ip), vehicle: other 94 % of control | dose: 100.0 mg/kg/injection, schedule: Q01DX009 (ip), vehicle: other 96 % of control | dose: 200.0 mg/kg/injection, schedule: Q01DX009 (ip), vehicle: other 96 % of control

Cc1cccnc1Br
inactive: dose: 25.0 mg/kg/injection, schedule: Q01DX009 (ip), vehicle: water 96 % of control | [1] 89 % of control

NC(=S)N/N=C/c1nc2ccccc2[nH]1
inactive: [2] 100 % of control | [3] 100 % of control | [4] 106 % of control | [5] 91 % of control

C=CCc1ccc(OC)c(O)c1C(=O)OCC
inactive: [6] 103 % of control | [7] 103 % of control | [8] 95 % of control

NC(COC(=O)c1ccccc1)C(=O)O (configuration not stated)
inactive: [9] 100 % of control | [10] 98 % of control | [11] 93 % of control

Cc1cc(C)c(N)c(Br)c1
inactive: dose: 6.25 mg/kg/injection, schedule: Q01DX009 (ip), vehicle: saline with Tween-80 118 % of control | [12] 113 % of control | dose: 12.5 mg/kg/injection, schedule: Q04DX003 (ip), vehicle: saline with Tween-80 100 % of control | [13] 100 % of control | dose: 25.0 mg/kg/injection, schedule: Q04DX003 (ip), vehicle: other 120 % of control | [2] 100 % of control | dose: 50.0 mg/kg/injection, schedule: Q04DX003 (ip), vehicle: other 120 % of control | [3] 95 % of control

CCN(CC)CC(C)(C)C(=O)/C=C/c1ccccc1
inactive: dose: 60.0 mg/kg/injection, schedule: Q01DX005 (ip), vehicle: saline 103 % of control | dose: 120.0 mg/kg/injection, schedule: Q01DX005 (ip), vehicle: saline 102 % of control | dose: 240.0 mg/kg/injection, schedule: Q01DX005 (ip), vehicle: saline 115 % of control

ClC(c1ccccc1)C1(Cl)C=c2ccccc2=C1 (configuration not stated)
inactive: [14] 109 % of control | dose: 100.0 mg/kg/injection, schedule: Q04DX003 (ip), vehicle: Klucel (hydroxypropylcellulose) (HPC) 100 % of control | [15] 109 % of control | dose: 200.0 mg/kg/injection, schedule: Q04DX003 (ip), vehicle: Klucel (hydroxypropylcellulose) (HPC) 104 % of control | dose: 400.0 mg/kg/injection, schedule: Q01DX009 (ip), vehicle: Klucel (hydroxypropylcellulose) (HPC) 113 % of control | dose: 400.0 mg/kg/injection, schedule: Q04DX003 (ip), vehicle: Klucel (hydroxypropylcellulose) (HPC) 109 % of control

NC1(N)ON(c2ccc(C=O)cc2)C(c2ccc([N+](=O)[O-])cc2)S1 (configuration not stated)
inactive: dose: 50.0 mg/kg/injection, schedule: Q01DX005 (ip), vehicle: Klucel (hydroxypropylcellulose) (HPC) 89 % of control | dose: 100.0 mg/kg/injection, schedule: Q01DX005 (ip), vehicle: Klucel (hydroxypropylcellulose) (HPC) 95 % of control | dose: 200.0 mg/kg/injection, schedule: Q01DX005 (ip), vehicle: Klucel (hydroxypropylcellulose) (HPC) 89 % of control

Oc1nc(-c2ccccc2)sc1-c1ccc(Cl)cc1
inactive: [12] 93 % of control | [13] 86 % of control | dose: 200.0 mg/kg/injection, schedule: Q01DX009 (ip), vehicle: saline with Tween-80 98 % of control

Clc1cccc(Cl)c1C1CSc2ccccc2N=C1c1ccccc1 (configuration not stated)
inactive: dose: 50.0 mg/kg/injection, schedule: Q01DX009 (ip), vehicle: Klucel (hydroxypropylcellulose) (HPC) 94 % of control | [14] 100 % of control | [15] 100 % of control

O=CNNC(=O)c1cnccn1
inactive: dose: 89.0 mg/kg/injection, schedule: Q01DX009 (ip), vehicle: water 109 % of control | dose: 133.0 mg/kg/injection, schedule: Q01DX009 (ip), vehicle: water 100 % of control | [1] 118 % of control

CC(=O)[C@@]1(O)CC[C@H]2[C@@H]3C=C(C)C4=CC(=O)CC[C@]4(C)[C@@]3(F)[C@@H](O)C[C@@]21C
inactive: [12] 100 % of control | [13] 90 % of control | [16] 109 % of control | [4] 91 % of control | [5] 95 % of control | [17] 100 % of control

COc1ccc(CSc2ncnc3nc[nH]c23)cc1
inactive: [13] 91 % of control | [16] 87 % of control

C=C1C(=O)OC2/C=C(\C)CC/C=C(\C=O)C(OC(=O)C(C)C)C(OC(=O)C(C)(C)O)C12 (configuration not stated)
inactive: dose: 5.0 mg/kg/injection, schedule: Q01DX009 (ip), vehicle: other 116 % of control | dose: 10.0 mg/kg/injection, schedule: Q01DX009 (ip), vehicle: other 112 % of control | dose: 20.0 mg/kg/injection, schedule: Q01DX009 (ip), vehicle: other 112 % of control

CC1OC(Nc2ncnc3nc[nH]c23)C(O)C(O)C1NC(=O)CNC(=O)CCCCCCCCC/C=C\C(C)(C)C (configuration not stated)
inactive: dose: 0.25 mg/kg/injection, schedule: Q01DX009 (ip), vehicle: distilled water + Tween-80 113 % of control | dose: 0.5 mg/kg/injection, schedule: Q01DX009 (ip), vehicle: distilled water + Tween-80 113 % of control and 123 % of control | dose: 4.0 mg/kg/injection, schedule: Q01DX009 (ip), vehicle: distilled water + Tween-80 100 % of control

CCc1c(C(=O)OC)c(C(=O)OC)c(-c2ccc(C)cc2)n1CCn1c(CC)c(C(=O)OC)c(C(=O)OC)c1-c1ccc(C)cc1
inactive: [18] 96 % of control | [19] 101 % of control | dose: 240.0 mg/kg/injection, schedule: Q01DX005 (ip), vehicle: Klucel (hydroxypropylcellulose) (HPC) 92 % of control

CN(C)c1nc(=O)c2cc(Br)ccc2o1
inactive: [18] 96 % of control | [19] 100 % of control

C[Si](C)(C)Cn1ccc(=O)n(C[Si](C)(C)C)c1=O
inactive: [9] 107 % of control | [10] 101 % of control | [11] 107 % of control

CCOC(=O)c1ccc(NCC#N)cc1
inactive: [4] 100 % of control | [5] 100 % of control | [17] 100 % of control

O=C(CNC(=O)OCc1ccccc1)OC(=O)CNC(=O)OCc1ccccc1
inactive: dose: 100.0 mg/kg/injection, schedule: Q04DX002 (ip), vehicle: Klucel (hydroxypropylcellulose) (HPC) 96 % of control | dose: 200.0 mg/kg/injection, schedule: Q04DX002 (ip), vehicle: Klucel (hydroxypropylcellulose) (HPC) 93 % of control | dose: 400.0 mg/kg/injection, schedule: Q04DX002 (ip), vehicle: Klucel (hydroxypropylcellulose) (HPC) 93 % of control

CN1c2ccc(Br)c[c]2[Sn]([CH3])([CH3])[c]2cc(Br)ccc21
inactive: dose: 60.0 mg/kg/injection, schedule: Q01DX005 (ip), vehicle: saline with Tween-80 99 % of control | dose: 120.0 mg/kg/injection, schedule: Q01DX005 (ip), vehicle: saline with Tween-80 100 % of control | dose: 240.0 mg/kg/injection, schedule: Q01DX005 (ip), vehicle: saline with Tween-80 104 % of control

COc1ccc(-c2cc(=O)c3c(O)c(OC)c(OC)cc3o2)cc1O
inactive: dose: 18.8 mg/kg/injection, schedule: Q04DX002 (ip), vehicle: saline with Tween-80 96 % of control | dose: 37.5 mg/kg/injection, schedule: Q04DX002 (ip), vehicle: saline with Tween-80 102 % of control | dose: 75.0 mg/kg/injection, schedule: Q04DX002 (ip), vehicle: saline with Tween-80 93 % of control | dose: 150.0 mg/kg/injection, schedule: Q04DX002 (ip), vehicle: saline with Tween-80 96 % of control

CCCCC(C)(CN(C)C)C(=O)/C=C/c1ccccc1 (configuration not stated)
inactive: [6] 108 % of control | [7] 115 % of control | [8] 86 % of control

[O-][n+]1c(C2=C(N3CCCC3)c3ccccc3C2)c(Cl)c(Cl)c(Cl)c1C1=C(N2CCCC2)c2ccccc2C1
inactive: dose: 25.0 mg/kg/injection, schedule: Q01DX005 (ip), vehicle: saline with Tween-80 102 % of control | [9] 103 % of control | [10] 93 % of control
